# Assay results reported in article PMC9252919, “Controlled masking and targeted release of redox-cycling ortho-quinones via a C–C bond-cleaving 1,6-elimination” (Nature Chemistry, 2022).
# B1: Gem-IgG1: native IgG1 antibody containing the variable region of gemtuzumab (antibody, chains of the INN, looked up, V domains shown)
# VH: EVQLVQSGAEVKKPGSSVKVSCKASGYTITDSNIHWVRQAPGQSLEWIGYIYPYNGGTDYNQKFKNRATLTVDNPTNTAYMELSSLRSEDTAFYYCVNGNPWLAYWGQGTLVTVSS
# VL: DIQLTQSPSTLSASVGDRVTITCRASESLDNYGIRFLTWFQQKPGKAPKLLMYAASNQGSGVPSRFSGSGSGTEFTLTISSLQPDDFATYYCQQTKEVPWSFGQGTKVEVK
# modifications: IgG1
# notes: native IgG1 antibody containing the variable region of gemtuzumab
# What was measured:
# AML cell line MOLM-13 = experiment: Viability assay with small-molecule prodrugs, MOLM-13; type: cell-based; conditions: MOLM-13
# Experimental: (§1) For assays assessing cytotoxicity of β-lapachone versus small-molecule prodrugs, antibodies and ADCs, suspension cells were plated into 24-well plates at a density of 2.5 × 10^5 cells ml^−1 in 240 µl. Stocks of ADC or antibody in PBS were normalized to 12.5 µM. Serial dilutions of compound were made up in PBS. Then, 60 µl of each stock of either PBS or compound in PBS was added to the cells to achieve the desired final concentration. After the specified incubation time, toxicity was assessed by counting of live cells using the trypan blue exclusion method with a Countess II Automated Cell Counter (ThermoFisher Scientific) according to the manufacturer’s instructions. Cell viability was determined by dividing the average live cell number of treated wells by the average live cell number for control wells treated with PBS only. IC50 values were calculated using GraphPad Prism software. Note: for the assay performed over 96 h, 5% human serum was added to media instead of 10% fetal bovine serum, to limit non-specific antibody internalisation. This had little effect on ADC toxicity.
# HL-60 cells = experiment: Lysosomal deacidification and inhibition assay; type: cell-based, human; conditions: HL-60
# Experimental: Assays to assess the effect of lysosomal activity on prodrugs were performed as follows: HL-60 cells were plated into 96-well plates at a concentration of 2.5 × 10^5 cells ml^−1 in 180 µl media. Cells were treated with 10 µl of a stock of NH4Cl in PBS (to obtain an in-plate concentration of 3 or 30 mM), 10 µl of a dilution of a DMSO stock of E64d in PBS (to obtain an in-plate concentration of 30 μM), PBS only or a dilution of DMSO in PBS. Cells were incubated for 30 min. Following this, 10 µl of a stock of test compound made by dilution of a DMSO stock into media was added. DMSO was present in-plate at a maximum of 0.2%. Cells were incubated overnight for 16 h. Following incubation, media was replaced with media containing CellTiter-Blue (Promega) in 1:4 dilution and the plates were incubated for 6 h. The fluorescence of the plates was recorded (excitation, 555 nm; emission, 585 nm; MiniMax i3x Reader, Molecular Devices). Cell viability was calculated by division of the fluorescence intensity of treated wells by that of the average fluorescence intensity of the relevant negative control wells.
# CD33+ HL-60 cells = experiment: Viability assay with small-molecule prodrugs and ADCs, HL-60; type: cell-based, human
# Experimental: as §1
# HEL cells = experiment: Viability assay with ADCs, HEL, trypan blue exclusion; type: cell-based, human; conditions: 96 h
# Experimental: as §1
Molecule,IC50 relative to 1 in MOLM-13 (AML cell line MOLM-13) [fold],toxicity after lysosomal deacidification (NH4Cl) or inhibition (E64d) (HL-60 cells),IC50 relative to 1 in HL-60 (CD33+ HL-60 cells) [fold],toxicity to HEL at 2.5 µM (HEL cells; 2.5 µM),in vitro toxicity against HEL (HEL cells; live cell count)
CC(C)C(NC(=O)OCc1ccccc1)C(=O)NC(CCCNC(N)=O)C(=O)Nc1ccc(CC2(O)C(=O)C3=C(OC(C)(C)CC3)c3ccccc32)cc1 (centres unmarked) [Compound 26],10,less toxic,10,,
B1,,,,no toxicity,no apparent toxicity
